Results reported in patent US9540357B1, “15-aryl prostaglandins as EP4 agonists, and methods of use thereof” (Allergan, Inc., priority 2014, dated 2017).

Tests used:
[1] = target: T1, EP2 (Homo sapiens (Human), UniProt P43116); assay: cAMP assay, EP2; assay type: cell-based; conditions: HEK-EBNA cells expressing EP2
[2] = target: T1, EP2; assay: Competition binding ([3H]PGE2), EP2; conditions: HEK 293 cells stably expressing human EP2 receptors, [3H]PGE2 10 nM
Protocol: Competition binding experiments were performed in a medium containing Hank's balanced salt solution, HEPES 20 mM, pH 7.3, membranes (˜60 μg protein) or 2×10^5 cells from HEK 293 cells stably expressing human EP2 receptors, [^3H]PGE2 (10 nM) and various concentrations of test compounds in a total volume of 300 μl. Reaction mixtures were incubated at 23° C. for 60 min, and were filtered over Whatman GF/B filters under vacuum. Filters were washed three times with 5 ml ice-cold buffer containing 50 mM Tris/HCl (pH 7.3). Non-specific binding was estimated in the presence of excess unlabeled PGE2 (10 μM). Binding data fitted to the binding model for a single class of binding sites, using nonlinear regression analysis. IC50 values thus obtained were converted to Ki using the equation of Ki=(IC50/(1+[L]/KD) where [L] represents PGE2 concentration (10 nM) and KD the dissociation constant for [^3H]PGE2 at human EP2 receptors (40 nM).

[3] = target: T2, EP4 (Homo sapiens (Human), UniProt P35408); assay: Competition binding, EP4
[4] = target: T2, EP4; assay: cAMP assay, EP4; assay type: cell-based; conditions: HEK-EBNA cells expressing EP4
Protocol: A 384-well drug plate was prepared to contain 6 test compounds, PGE2 and cAMP in 16 serial dilutions in triplicate, using a Biomek station. HEK-EBNA cells expressing a target PG receptor subtype (EP2 or EP4) were suspended in a stimulation buffer (HBSS, 0.1% BSA, 0.5 mM IBMX and 5 mM HEPES, pH 7.4) in a density of 10^4 cells/5 microliters. The reaction was initiated by mixing 5 microliters drug dilutions with 5 microliters of HEK-EBNA cells in a well, carried out for 30 min at room temperature, and followed by the addition of 5 microliters anti-cAMP acceptor beads in the control buffer with Tween-20 (25 mM NaCl, 0.03% Tween-20, 5 mM HEPES, pH 7.4). After 30 min in the dark at room temperature, the mixtures were incubated with 15 microliters biotinylated-cAMP/streptavidin donor beads in Lysis/Detection buffer (0.1% BSA, 0.3% Tween-20 and 5 mM HEPES, pH 7.4) for 45 min at room temperature. Fluorescence changes were read using a Fusion-alpha microplate reader.

[5] = target: hEP1 (Homo sapiens (Human), UniProt P34995); assay: FLIPR calcium signal, hEP1; assay type: cell-based; conditions: HEK-293(EBNA) cells expressing hEP1
Protocol: (§1) HEK-293(EBNA) cells, stably expressing one type or subtype of recombinant human prostaglandin receptors (prostaglandin receptors expressed: hDP/Gqs5; hEP1; hEP2/Gqs5: hEP3A/Gqi5; hEP4/Gqs5; hFP; hIP; hTP), were cultured in 100 mm culture dishes in high-glucose DMEM medium containing 10% fetal bovine serum, 2 mM 1-glutamine, 250 μg/ml geneticin (G418) and 200 microgram/mL hygromycin B as selection markers, and 100 units/ml penicillin G, 100 microgram/mL streptomycin and 0.25 microgram/mL amphotericin B.
(§2) Cells were seeded at a density of 5×10^4 cells per well in Biocoat® Poly-D-lysine-coated black-wall, clear-bottom 96-well plates (Becton-Dickinson) and allowed to attach overnight in an incubator at 37° C. Cells were then washed two times with HBSS-HEPES buffer (Hanks Balanced Salt Solution without bicarbonate and phenol red, 20 mM HEPES, pH 7.4) using a Denley Cellwash plate washer (Labsystems). […]
(§3) Cells were excited with an Argon laser at 488 nm, and emission was measured through a 510-570 nm bandwidth emission filter (FLIPR™, Molecular Devices, Sunnyvale, Calif.). […] The peak increase in fluorescence intensity was recorded for each well. […] The peak fluorescence change in each drug-containing well was then expressed relative to the controls. […]

[6] = target: hDP (Homo sapiens (Human), UniProt Q13258); assay: FLIPR calcium signal, hDP; assay type: cell-based; conditions: HEK-293(EBNA) cells expressing hDP/Gqs5
Protocol: as §1, §2, §3

[7] = target: hFP (Homo sapiens (Human), UniProt P43088); assay: FLIPR calcium signal, hFP; assay type: cell-based; conditions: HEK-293(EBNA) cells expressing hFP
Protocol: as §1, §2, §3

[8] = target: hEP3A (Homo sapiens (Human), UniProt P43115); assay: FLIPR calcium signal, hEP3A; assay type: cell-based; conditions: HEK-293(EBNA) cells expressing hEP3A/Gqi5
Protocol: as §1, §2, §3

[9] = target: hTP (Homo sapiens (Human), UniProt P21731); assay: FLIPR calcium signal, hTP; assay type: cell-based; conditions: HEK-293(EBNA) cells expressing hTP
Protocol: as §1, §2, §3

T2 sequence (P35408 whole entry): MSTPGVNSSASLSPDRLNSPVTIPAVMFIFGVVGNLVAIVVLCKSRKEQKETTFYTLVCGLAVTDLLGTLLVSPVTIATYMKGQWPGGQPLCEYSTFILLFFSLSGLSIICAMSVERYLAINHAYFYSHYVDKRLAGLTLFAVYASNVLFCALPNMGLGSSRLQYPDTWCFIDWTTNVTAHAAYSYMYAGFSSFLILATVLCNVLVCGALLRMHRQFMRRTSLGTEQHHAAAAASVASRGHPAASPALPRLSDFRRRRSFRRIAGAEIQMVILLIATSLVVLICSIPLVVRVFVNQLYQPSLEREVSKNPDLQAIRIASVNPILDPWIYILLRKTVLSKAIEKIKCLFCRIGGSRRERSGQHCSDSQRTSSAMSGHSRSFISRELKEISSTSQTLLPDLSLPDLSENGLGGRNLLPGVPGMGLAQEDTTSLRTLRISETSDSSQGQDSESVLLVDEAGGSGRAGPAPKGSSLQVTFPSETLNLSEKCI
T1 sequence (P43116 whole entry): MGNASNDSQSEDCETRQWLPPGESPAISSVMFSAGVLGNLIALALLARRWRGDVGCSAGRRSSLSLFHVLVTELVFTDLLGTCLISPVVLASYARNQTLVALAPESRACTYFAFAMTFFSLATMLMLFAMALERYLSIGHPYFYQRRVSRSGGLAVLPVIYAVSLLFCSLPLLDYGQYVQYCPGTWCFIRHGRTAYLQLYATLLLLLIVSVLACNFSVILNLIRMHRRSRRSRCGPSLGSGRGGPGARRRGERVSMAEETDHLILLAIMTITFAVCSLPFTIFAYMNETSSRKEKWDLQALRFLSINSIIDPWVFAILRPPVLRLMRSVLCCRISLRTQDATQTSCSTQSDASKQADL
hFP, sequence (P43088 whole entry): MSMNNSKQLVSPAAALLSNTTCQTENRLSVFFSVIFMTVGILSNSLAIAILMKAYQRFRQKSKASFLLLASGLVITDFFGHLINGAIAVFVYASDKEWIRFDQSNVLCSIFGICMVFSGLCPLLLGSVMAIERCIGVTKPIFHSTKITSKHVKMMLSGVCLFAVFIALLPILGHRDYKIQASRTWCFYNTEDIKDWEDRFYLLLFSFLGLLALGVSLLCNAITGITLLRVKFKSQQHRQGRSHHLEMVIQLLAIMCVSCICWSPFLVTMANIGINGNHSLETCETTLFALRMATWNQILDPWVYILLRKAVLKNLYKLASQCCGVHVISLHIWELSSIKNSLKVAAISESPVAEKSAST
hEP3A, sequence (P43115 whole entry): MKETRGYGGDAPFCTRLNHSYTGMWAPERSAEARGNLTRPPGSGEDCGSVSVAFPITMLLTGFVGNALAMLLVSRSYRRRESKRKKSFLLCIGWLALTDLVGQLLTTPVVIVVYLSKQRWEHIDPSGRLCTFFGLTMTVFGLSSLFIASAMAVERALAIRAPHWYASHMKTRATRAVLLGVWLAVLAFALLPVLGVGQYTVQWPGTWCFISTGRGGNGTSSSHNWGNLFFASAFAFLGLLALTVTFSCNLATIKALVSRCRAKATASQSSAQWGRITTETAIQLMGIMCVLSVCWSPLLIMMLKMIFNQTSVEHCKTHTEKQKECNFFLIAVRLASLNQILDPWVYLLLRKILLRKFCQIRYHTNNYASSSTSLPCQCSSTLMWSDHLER
hEP1, sequence (P34995 whole entry): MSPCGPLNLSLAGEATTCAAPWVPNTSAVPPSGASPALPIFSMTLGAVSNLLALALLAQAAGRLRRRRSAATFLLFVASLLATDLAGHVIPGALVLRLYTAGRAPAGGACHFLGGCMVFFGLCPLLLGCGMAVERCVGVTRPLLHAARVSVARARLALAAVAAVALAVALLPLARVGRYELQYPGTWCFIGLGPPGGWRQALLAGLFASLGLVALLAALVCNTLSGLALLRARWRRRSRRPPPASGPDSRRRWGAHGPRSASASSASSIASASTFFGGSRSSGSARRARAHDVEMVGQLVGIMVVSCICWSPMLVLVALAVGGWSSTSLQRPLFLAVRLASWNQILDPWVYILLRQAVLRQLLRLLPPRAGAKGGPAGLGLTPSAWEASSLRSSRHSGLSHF
hDP, sequence (Q13258 whole entry): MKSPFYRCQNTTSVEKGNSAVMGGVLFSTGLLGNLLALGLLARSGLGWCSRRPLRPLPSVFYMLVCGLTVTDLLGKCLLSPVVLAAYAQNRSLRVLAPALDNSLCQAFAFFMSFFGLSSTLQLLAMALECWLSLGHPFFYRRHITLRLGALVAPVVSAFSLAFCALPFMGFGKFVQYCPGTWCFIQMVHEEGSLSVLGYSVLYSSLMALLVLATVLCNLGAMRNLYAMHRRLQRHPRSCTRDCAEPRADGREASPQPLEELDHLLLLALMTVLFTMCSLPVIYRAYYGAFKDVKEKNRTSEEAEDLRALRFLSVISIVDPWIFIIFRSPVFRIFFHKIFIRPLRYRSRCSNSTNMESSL
hTP, sequence (P21731 whole entry): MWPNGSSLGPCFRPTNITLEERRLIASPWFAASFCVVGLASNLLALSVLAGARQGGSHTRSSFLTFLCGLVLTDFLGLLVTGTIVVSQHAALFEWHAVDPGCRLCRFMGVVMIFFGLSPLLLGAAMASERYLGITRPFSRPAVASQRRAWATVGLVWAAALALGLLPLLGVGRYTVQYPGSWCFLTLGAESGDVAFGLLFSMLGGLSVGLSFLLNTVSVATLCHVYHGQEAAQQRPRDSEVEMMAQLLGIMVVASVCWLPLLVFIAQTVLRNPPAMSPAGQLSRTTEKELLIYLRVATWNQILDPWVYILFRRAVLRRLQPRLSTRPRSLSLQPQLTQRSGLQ

Compound | EC50 [1] | Ki [2] | Ki [3] | EC50 [4] | EC50 against hEP1 [5] | EC50 against hDP [6] | EC50 against hFP [7] | EC50 against hEP3A [8] | EC50 against hTP [9] | EP2 Ki [2]
O=C(O)c1ccc(CCCN2C(=O)CC[C@@H]2/C=C/C(O)c2cccc(Br)c2)cc1 (single isomer, unassigned) [Example 2] | 149 nM | 7490 nM | 1210 nM | 194 nM |  |  |  |  |  | 
Cc1cc(O)ccc1-c1cccc(C(O)/C=C/[C@H]2CCC(=O)N2CCCc2ccc(C(=O)O)cc2)c1 (single isomer, unassigned) [Example 9] |  |  | 3320 nM | 326 nM | not active | not active | not active | not active | not active | > 10000 nM
Cc1cc(O)ccc1-c1cccc(C(O)/C=C/[C@H]2CCC(=O)N2CCCc2ccc(C(=O)O)cc2)c1 (single isomer, unassigned) [Example 10] |  |  | 25 nM | 3 nM | not active | not active | not active | not active | not active | > 10000 nM
CC(C)c1cc(O)ccc1-c1cccc(C(O)/C=C/[C@H]2CCC(=O)N2CCCc2ccc(C(=O)O)cc2)c1 (stereo partly drawn) [Example 30, 4-[3-(2(R)-{(1E)-3-hydroxy-3-[4′-hydroxy-2′-(propan-2-yl)biphenyl-3-yl]prop-1-en-1-yl}-5-oxopyrrolidin-1-yl)propyl]benzoic acid] |  |  | 582 nM | 134 nM |  |  |  |  |  | > 10000 nM
CC(C)c1cc(O)ccc1-c1cccc(C(O)/C=C/[C@H]2CCC(=O)N2CCCc2ccc(C(=O)O)cc2)c1 (stereo partly drawn) [Example 31, 4-[3-(2(R)-{(1E)-3-hydroxy-3-[4′-hydroxy-2′-(propan-2-yl)biphenyl-3-yl]prop-1-en-1-yl}-5-oxopyrrolidin-1-yl)propyl]benzoic acid] |  |  | 211 nM | 60 nM |  |  |  |  |  | > 10000 nM
Cc1cc(Cl)ccc1-c1ccc(C(O)/C=C/[C@H]2CCC(=O)N2CCCc2ccc(C(=O)O)cc2)s1 (stereo partly drawn) [Example 33, 4-[3-(2(R)-{(1E)-3-[5-(4-chloro-2-methylphenyl)thiophen-2-yl]-3-hydroxyprop-1-en-1-yl}-5-oxopyrrolidin-1-yl)propyl]benzoic acid] |  |  | 536 nM | 118 nM |  |  |  |  |  | > 10000 nM
